Patent US9850283B2, “Macrocyclic inhibitors of the PD-1/PD-L1 and CD80(B7-1)/PD-L1 protein/protein interactions” (BRISTOL-MYERS SQUIBB COMPANY, priority 2013, dated 2017)
Where two headings read alike, the source gives them in different places. Starred links: 1 amine or outer side, 2 acyl side, 3 side chain; linkers in the order of their positions; H or OH if unused. Positions of bridges follow the written chain, without caps; N, C: chain ends. Non-standard residues stand in square brackets, D forms with d. Residues, ends and D or L forms follow the SMILES beside them. Ala(benzothiazol-2-yl) = N[C@@H](Cc1nc2ccccc2s1)C(=O)O; X10 = O=C([C@H](Cc1ccc(F)c(Cl)c1)N[*:1])[*:2]; 1Nal = N[C@@H](Cc1cccc2ccccc12)C(=O)O; Phe(2-F) = N[C@@H](Cc1ccccc1F)C(=O)O; NMeF = CN[C@@H](Cc1ccccc1)C(=O)O; NMeNle = CCCC[C@H](NC)C(=O)O; Sar = CNCC(=O)O

Key:
[1] = biological target: T1, Human PD-L1/PD-1 (Homo sapiens, UniProt Q9NZQ7); assay: HTRF PD-1-Ig/PD-L1-His binding assay (human PD-L1)
T1 construct: made in house; host or cells: HEK293T
T1 sequence (Q9NZQ7 with tags, fused parts or gaps): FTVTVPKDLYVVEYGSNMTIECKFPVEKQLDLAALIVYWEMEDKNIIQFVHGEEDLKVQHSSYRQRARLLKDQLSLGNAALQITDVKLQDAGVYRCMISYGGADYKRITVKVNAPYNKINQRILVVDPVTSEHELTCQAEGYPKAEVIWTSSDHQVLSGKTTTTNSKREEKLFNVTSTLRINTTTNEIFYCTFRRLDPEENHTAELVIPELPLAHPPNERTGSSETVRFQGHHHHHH
Procedure, shortened: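 Soluble PD-1-Ig binding to PD-L1-His measured by HTRF in dPBS with 0.1% BSA and 0.05% Tween-20. Detection used europium cryptate anti-Ig antibody (1 nM final) and APC anti-His antibody (20 nM final) added on top of the binding reaction.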

[2] = biological target: T2, LK35.2-hPD-L1 cells / PE-labeled PD-1-Ig (Homo sapiens, UniProt Q9NZQ7); assay: LK35.2-hPD-L1 cell binding high-content screening assay; format: cell-based; settings: cell binding assay, cell line not given
T2 construct: expressed in transfected cells; host or cells: LK35.2 mouse B cell line
T2 sequence (Q9NZQ7 19-290): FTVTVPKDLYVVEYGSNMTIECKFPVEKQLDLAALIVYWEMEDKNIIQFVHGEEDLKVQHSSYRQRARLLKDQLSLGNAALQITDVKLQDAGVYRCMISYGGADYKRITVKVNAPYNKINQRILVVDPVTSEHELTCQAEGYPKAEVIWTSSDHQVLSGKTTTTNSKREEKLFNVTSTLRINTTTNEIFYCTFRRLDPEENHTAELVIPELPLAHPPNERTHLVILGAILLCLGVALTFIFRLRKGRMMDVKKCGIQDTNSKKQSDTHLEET
Procedure, shortened: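 Using overnight-cultured LK35.2-hPD-L1 mouse B cells, compound was co-incubated with phycoerythrin-tagged human PD-1-Ig (final 1 nM) at 37 °C for one hour. Unbound label was removed by triple dPBS washing prior to high-content image acquisition and analysis.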

[3] = cluster symbol, read-out: HTRF IC50 cluster
[4] = cluster symbol, read-out: CBA IC50 cluster

| SMILES | IC50 [1, 3] | IC50 [2, 4] | other results |
| --- | --- | --- | --- |
| CCCC[C@H]1C(=O)N(C)CC(=O)N[C@@H](CC(=O)O)C(=O)N[C@@H](C(C)C)C(=O)N(C)[C@@H](Cc2ccccc2)C(=O)N[C@@H](Cc2ccc(O)cc2)C(=O)N(C)CC(=O)N[C@@H](Cc2nc3ccccc3s2)C(=O)N[C@@H](Cc2ccc(O)cc2)C(=O)N[C@@H](CC(C)C)C(=O)N[C@H](C(=O)NCC(N)=O)CSCC(=O)N[C@@H](Cc2ccccc2)C(=O)N(C)[C@@H](Cc2ccccc2)C(=O)N1C [Example 3557] ({CH2CO}-F[NMeF][NMeNle][Sar]DV[NMeF]Y[Sar][Ala(benzothiazol-2-yl)]YLCG-NH2; thioether N-13) | > 30.5 nM | > 74.3 nM | – |
| CCCC[C@H]1C(=O)N(C)CC(=O)N[C@@H](CC(=O)O)C(=O)N[C@@H](C(C)C)C(=O)N(C)[C@@H](Cc2ccccc2)C(=O)N[C@@H](Cc2ccc(O)cc2)C(=O)N(C)CC(=O)N[C@@H](Cc2c[nH]c3ccccc23)C(=O)N[C@@H](Cc2nc3ccccc3s2)C(=O)N[C@@H](CC(C)C)C(=O)N[C@H](C(=O)NCC(N)=O)CSCC(=O)N[C@@H](Cc2ccccc2)C(=O)N(C)[C@@H](Cc2ccccc2)C(=O)N1C [Example 3558] ({CH2CO}-F[NMeF][NMeNle][Sar]DV[NMeF]Y[Sar]W[Ala(benzothiazol-2-yl)]LCG-NH2; thioether N-13) | > 30.5 nM | > 74.3 nM | – |
| CCCC[C@H]1C(=O)N(C)CC(=O)N[C@@H](CC(=O)O)C(=O)N[C@@H](C(C)C)C(=O)N(C)[C@@H](Cc2ccccc2)C(=O)N[C@@H](CCC(=O)O)C(=O)N(C)CC(=O)N[C@@H](Cc2c[nH]c3ccccc23)C(=O)N[C@@H](Cc2ccc(O)cc2)C(=O)N[C@@H](CCCNC(=N)N)C(=O)N[C@H](C(=O)NCC(N)=O)CSCC(=O)N[C@@H](Cc2ccccc2)C(=O)N(C)[C@@H](Cc2ccccc2)C(=O)N1C [Example 3559] (HELM PEPTIDE1{[O=C(C[*:3])[*:2]].F.[meF].[CCCC[C@@H](C(=O)[*:2])N(C)[*:1]].[Sar].D.V.[meF].E.[Sar].W.Y.R.C.G.[am]}$PEPTIDE1,PEPTIDE1,1:R3-14:R3$$$V2.0) | – | – | IC50 ([1]; HTRF IC50 value, value given instead of cluster): 12.1 nM; IC50 ([2]; CBA IC50 value, value given instead of cluster): 48 nM |
| CCCC[C@H]1C(=O)N(C)CC(=O)N[C@@H](CC(=O)O)C(=O)N[C@@H](C(C)C)C(=O)N(C)[C@@H](Cc2ccccc2)C(=O)N[C@@H](Cc2ccc(O)cc2)C(=O)N(C)CC(=O)N[C@@H](Cc2c[nH]c3ccccc23)C(=O)N[C@@H](Cc2ccc(O)cc2)C(=O)N2CCC[C@H]2C(=O)N[C@H](C(=O)NCC(N)=O)CSCC(=O)N[C@@H](Cc2ccccc2)C(=O)N(C)[C@@H](Cc2ccccc2)C(=O)N1C [Example 3561] (HELM PEPTIDE1{[O=C(C[*:3])[*:2]].F.[meF].[CCCC[C@@H](C(=O)[*:2])N(C)[*:1]].[Sar].D.V.[meF].Y.[Sar].W.Y.P.C.G.[am]}$PEPTIDE1,PEPTIDE1,1:R3-14:R3$$$V2.0) | > 30.5 nM | > 74.3 nM | – |
| CCCC[C@H]1C(=O)N(C)CC(=O)N[C@@H](CC(=O)O)C(=O)N[C@@H](C(C)C)C(=O)N(C)[C@@H](Cc2ccccc2)C(=O)N[C@H](Cc2ccc(O)cc2)C(=O)N(C)CC(=O)N[C@@H](Cc2c[nH]c3ccccc23)C(=O)N[C@H](Cc2ccc(O)cc2)C(=O)N[C@@H](CC(C)C)C(=O)N[C@H](C(=O)NCC(N)=O)CSCC(=O)N[C@@H](Cc2ccccc2)C(=O)N(C)[C@@H](Cc2ccccc2)C(=O)N1C [Example 3564] (HELM PEPTIDE1{[O=C(C[*:3])[*:2]].F.[meF].[CCCC[C@@H](C(=O)[*:2])N(C)[*:1]].[Sar].D.V.[meF].[dY].[Sar].W.[dY].L.C.G.[am]}$PEPTIDE1,PEPTIDE1,1:R3-14:R3$$$V2.0) | – | – | IC50 ([1]; value given instead of cluster, read-out: HTRF IC50 value): > 10000 nM; IC50 ([2]; value given instead of cluster, read-out: CBA IC50 value): > 10000 nM |
| CCCC[C@H]1C(=O)N(C)CC(=O)N[C@@H](CC(=O)O)C(=O)N[C@@H](C(C)C)C(=O)N(C)[C@@H](Cc2ccccc2)C(=O)N[C@@H](Cc2ccc(O)cc2)C(=O)N(C)CC(=O)N[C@@H](Cc2c[nH]c3ccccc23)C(=O)N[C@@H](Cc2ccc(O)cc2)C(=O)N2CCC[C@@H]2C(=O)N[C@H](C(=O)NCC(N)=O)CSCC(=O)N[C@@H](Cc2ccccc2)C(=O)N(C)[C@@H](Cc2ccccc2)C(=O)N1C [Example 3565] (HELM PEPTIDE1{[O=C(C[*:3])[*:2]].F.[meF].[CCCC[C@@H](C(=O)[*:2])N(C)[*:1]].[Sar].D.V.[meF].Y.[Sar].W.Y.[dP].C.G.[am]}$PEPTIDE1,PEPTIDE1,1:R3-14:R3$$$V2.0) | > 30.5 nM | > 74.3 nM | – |
| CCCC[C@H]1C(=O)N(C)CC(=O)N[C@@H](CC(=O)O)C(=O)N[C@@H](C(C)C)C(=O)N(C)[C@@H](Cc2ccccc2)C(=O)N[C@@H](Cc2ccc(O)cc2)C(=O)N(C)CC(=O)N[C@@H](Cc2c[nH]c3ccccc23)C(=O)N[C@@H](Cc2ccc(O)cc2)C(=O)N[C@@H](CC(C)C)C(=O)N[C@H](C(=O)NCC(N)=O)CSCC(=O)N[C@@H](Cc2ccc(F)c(Cl)c2)C(=O)N(C)[C@@H](Cc2ccccc2)C(=O)N1C [Example 3567] ({CH2CO}-[X10][NMeF][NMeNle][Sar]DV[NMeF]Y[Sar]WYLCG-NH2; thioether N-13) | 0.385 to 6.74 nM | 0.158 to 4.71 nM | – |
| CCCC[C@H]1C(=O)N(C)CC(=O)N[C@@H](CC(=O)O)C(=O)N[C@@H](C(C)C)C(=O)N(C)[C@@H](Cc2ccccc2)C(=O)N[C@@H](Cc2ccc(O)cc2)C(=O)N(C)CC(=O)N[C@@H](Cc2c[nH]c3ccccc23)C(=O)N[C@@H](Cc2ccc(O)cc2)C(=O)N[C@@H](CC(C)C)C(=O)N[C@H](C(=O)NCC(N)=O)CSCC(=O)N[C@@H](Cc2ccccc2)C(=O)N[C@@H](Cc2cccc3ccccc23)C(=O)N1C [Example 3569] ({CH2CO}-F[1Nal][NMeNle][Sar]DV[NMeF]Y[Sar]WYLCG-NH2; thioether N-13) | > 30.5 nM | > 74.3 nM | – |

The next lines start with results.

| IC50 [1, 3] | IC50 [2, 4] | SMILES | other results |
| --- | --- | --- | --- |
| 6.76 to 30.3 nM | 0.158 to 4.71 nM | CCCC[C@H]1C(=O)N2CCC[C@@H]2C(=O)N[C@@H](CC(=O)O)C(=O)N[C@@H](C(C)C)C(=O)N(C)[C@@H](Cc2ccccc2)C(=O)N[C@@H](Cc2ccc(O)cc2)C(=O)N(C)CC(=O)N[C@@H](Cc2c[nH]c3ccccc23)C(=O)N[C@@H](Cc2ccc(O)cc2)C(=O)N[C@@H](CC(C)C)C(=O)N[C@H](C(=O)NCC(N)=O)CSCC(=O)N[C@@H](Cc2ccccc2)C(=O)N(C)[C@@H](Cc2ccccc2)C(=O)N1C [Example 3560] (HELM PEPTIDE1{[O=C(C[*:3])[*:2]].F.[meF].[CCCC[C@@H](C(=O)[*:2])N(C)[*:1]].[dP].D.V.[meF].Y.[Sar].W.Y.L.C.G.[am]}$PEPTIDE1,PEPTIDE1,1:R3-14:R3$$$V2.0) | – |
| 6.76 to 30.3 nM | 0.158 to 4.71 nM | CCCC[C@H]1C(=O)N(C)CC(=O)N[C@@H](CC(=O)O)C(=O)N[C@@H](C(C)C)C(=O)N(C)[C@@H](Cc2ccccc2)C(=O)N[C@@H](Cc2ccc(O)cc2)C(=O)N2CCC[C@@H]2C(=O)N[C@@H](Cc2c[nH]c3ccccc23)C(=O)N[C@@H](Cc2ccc(O)cc2)C(=O)N[C@@H](CC(C)C)C(=O)N[C@H](C(=O)NCC(N)=O)CSCC(=O)N[C@@H](Cc2ccccc2)C(=O)N(C)[C@@H](Cc2ccccc2)C(=O)N1C [Example 3562] (HELM PEPTIDE1{[O=C(C[*:3])[*:2]].F.[meF].[CCCC[C@@H](C(=O)[*:2])N(C)[*:1]].[Sar].D.V.[meF].Y.[dP].W.Y.L.C.G.[am]}$PEPTIDE1,PEPTIDE1,1:R3-14:R3$$$V2.0) | – |
| > 30.5 nM | > 74.3 nM | CCCC[C@H]1C(=O)N(C)CC(=O)N[C@@H](CC(=O)O)C(=O)N[C@@H](C(C)C)C(=O)N(C)[C@@H](Cc2ccccc2)C(=O)N[C@@H](Cc2ccc(O)cc2)C(=O)N(C)CC(=O)N[C@H](Cc2c[nH]c3ccccc23)C(=O)N[C@@H](Cc2ccc(O)cc2)C(=O)N[C@@H](CC(C)C)C(=O)N[C@H](C(=O)NCC(N)=O)CSCC(=O)N[C@@H](Cc2ccccc2)C(=O)N(C)[C@@H](Cc2ccccc2)C(=O)N1C [Example 3563] (HELM PEPTIDE1{[O=C(C[*:3])[*:2]].F.[meF].[CCCC[C@@H](C(=O)[*:2])N(C)[*:1]].[Sar].D.V.[meF].Y.[Sar].[dW].Y.L.C.G.[am]}$PEPTIDE1,PEPTIDE1,1:R3-14:R3$$$V2.0) | – |
| > 30.5 nM | > 74.3 nM | CCCC[C@H]1C(=O)N(C)CC(=O)N[C@@H](CC(=O)O)C(=O)N[C@@H](C(C)C)C(=O)N(C)[C@@H](Cc2ccccc2)C(=O)N[C@@H](Cc2ccc(O)cc2)C(=O)N(C)CC(=O)N[C@@H](Cc2c[nH]c3ccccc23)C(=O)N(C)[C@@H](Cc2ccc(O)cc2)C(=O)N[C@@H](CC(C)C)C(=O)N[C@H](C(=O)NCC(N)=O)CSCC(=O)N[C@@H](Cc2ccccc2)C(=O)N(C)[C@@H](Cc2ccccc2)C(=O)N1C [Example 3566] (HELM PEPTIDE1{[O=C(C[*:3])[*:2]].F.[meF].[CCCC[C@@H](C(=O)[*:2])N(C)[*:1]].[Sar].D.V.[meF].Y.[Sar].W.[meY].L.C.G.[am]}$PEPTIDE1,PEPTIDE1,1:R3-14:R3$$$V2.0) | – |
| > 30.5 nM | 4.78 to 72.9 nM | CCCC[C@H]1C(=O)N(C)CC(=O)N[C@@H](CC(=O)O)C(=O)N[C@@H](C(C)C)C(=O)N(C)[C@@H](Cc2ccccc2)C(=O)N[C@@H](Cc2ccc(O)cc2)C(=O)N(C)CC(=O)N[C@@H](Cc2c[nH]c3ccccc23)C(=O)N[C@@H](Cc2ccc(O)cc2)C(=O)N[C@@H](CC(C)C)C(=O)N[C@H](C(=O)NCC(N)=O)CSCC(=O)N[C@@H](Cc2ccccc2F)C(=O)N(C)[C@@H](Cc2ccccc2)C(=O)N1C [Example 3568] ({CH2CO}-[Phe(2-F)][NMeF][NMeNle][Sar]DV[NMeF]Y[Sar]WYLCG-NH2; thioether N-13) | – |
